Experiment: QWBA tissue distribution of [14C] Compound 1, pigmented Long-Evans rats (PO, IV)
Format: in vivo
Conditions: male LE rats, 20 mg/kg PO
Procedure: This study was conducted to determine the tissue distribution of drug-related radioactivity following a single oral (PO) (20 mg/kg) or intravenous (IV) (5 mg/kg) administration of [^14C]
Ten adult male pigmented Long-Evans (LE) rats (Group 1), 1 adult male LE rat (Group 2), and 3 albino Wistar Han (WH) rats (Group 3) received a single oral 20 mg/kg (Groups 1 and 3) or IV 5 mg/kg (Group 2) dose of [^14C] […] The formulation was prepared at a target dose of 5 mg (IV) or 20 mg (PO) […]
The carcasses were frozen in hexane dry-ice and stored at or below −20° C. prior to processing for QWBA. Each carcass was embedded, cut into sagittal sections, and mounted for QWBA. […] The lower limit of quantitation was 0.105 μg equiv/g.

CC(=O)c1nn(CC(=O)N2C[C@H](F)C[C@H]2C(=O)Nc2cccc(Br)n2)c2ccc(-c3cnc(C)nc3)cc12 [Compound 1, (2S,4R)-1-(2-(3-Acetyl-5-(2-methylpyrimidin-5-yl)-1H-indazol-1-yl)acetyl)-N-(6-bromopyridin-2-yl)-4-fluoropyrrolidine-2-carboxamide]
Concentration of radioactivity at Tmax, adrenal gland cortex: 33.5 μg equiv/g
Concentration of radioactivity at Tmax, liver: 52.0 μg equiv/g
Concentration of radioactivity at Tmax, small intestine: 77.9 μg equiv/g
Concentration of radioactivity at Tmax, stomach: 374 μg equiv/g
Concentration of radioactivity at Tmax, tissues with the lowest concentrations (brain, spinal cord, bone, testis, lens of the eye): < 1.00 μg equiv/g
Concentration of radioactivity at Tmax, urinary bladder: 54.2 μg equiv/g
Concentration of radioactivity at Tmax, white adipose: 21.1 μg equiv/g
t1/2, eye uvea: 24 days
t1/2, liver: 2.02 days
t1/2, pigmented skin: 19.7 days
Concentration of radioactivity at Tmax, bile (1 h): 232 μg equiv/g
Highest concentration of radioactivity in blood (1 h post-dose): 5.28 μg equiv/g
Concentration of radioactivity at Tmax, urine (4 h): 66.2 μg equiv/g
Concentration of radioactivity in blood (8 h post-dose): 0.184 μg equiv/g
Tissues with quantifiable concentrations at 672 h (672 h): Only eye (uvea) and pigmented skin

From patent US20230126447A1, “OCULAR DRUG DEPOT FOR COMPLEMENT-MEDIATED DISORDERS” (priority 2020, published 2023)
